# Measured values as given in patent US9623031B2, “Compositions, methods and kits for treating cancer” (priority 2011, dated 2017).
# Entries after “also recorded” stand apart in the source; their conditions may differ.
# Tests used:
# [1] = test system: p53; assay: p53 expression in BCR-ABL+ LSCs treated ex vivo; assay type: cell-based, mouse
# [2] = test system: Friend virus (FV)-induced erythroleukemia; assay: FV-induced erythroleukemia in FV-infected mice, intraperitoneal treatment; assay type: in vivo, mouse
# From the text: FV-induced erythroleukemia and production of FV leukemia stem cells (FV-LSCs): BALB/c mice were infected with FV as previously described (Subramanian A et al., J Virol. 2008; 82:382-393; Harandi O F et al., J Clin Invest. 2010; 120:4507-4519). On day 14 after infection, spleens were isolated and a single cell suspension of spleen cells was generated. The cells were filtered through a 70 μm sterile filter and flow-through cells were resuspended in RBC lysis buffer followed by centrifugation. Leukemia stem cells were isolated by FACS. Spleen cells were labeled with anti-Kit, Sca1 (BioLegend, San Diego, Calif.) and M34 antibodies. M34 is a monoclonal antibody that recognizes the envelope protein of SFFV (Chesebro B et al., Virology. 1981; 112:131-144) and was used as previously described (Subramanian A et al., J Virol. 2008; 82:382-393). As indicated M34^+Kit^+Sca1^+ cells were cultured in Methocult media (Stem Cell Technologies Vancouver BC) M3334 supplemented with 200 ng/ml Sonic Hedgehog (Shh), 15 ng/ml bone morphogenetic protein-4 (BMP4) (both from R&D Systems Minneapolis, Minn.), and 50 ng/ml stem cell factor (SCF; Peprotech). For CFU-FV assays, cells were plated in methylcellulose media containing fetal calf serum, but lacking added growth factors as previously described (Mager D L et al., Proc Natl Acad Sci USA. 1981; 78:1703-1707).
# Complete blood counts of mice treated with Δ^12-PGJ3 (0.05 mg/kg) were examined. There is no difference in treated mice and untransplanted control mice in terms of white blood cell counts, red blood cell counts or platelet counts. Changes in hematological parameters in FV-infected mice upon treatment with CyPGs were examined. FV-infected Balb/c mice were treated with Δ^12-PGJ3 (0.05 mg/kg) intraperitoneally for 7 d following which the mice were sacrificed and hematological parameters were analyzed on an Advia blood analyzer. FV-infected Δ^12-PGJ3 treated mice were compared to infected vehicle controls. N=5 per group, all data are means±s.e.m. *P<0.05. 3% w/v hydroxypropyl-3-cyclodextrin was used as a vehicle in in vivo experiments. Spleen sizes of FV-infected mice that were treated with either vehicle, 9,10-dihydro-15d-PGJ2 (0.05 mg/kg), or 15d-PGJ2 (0.05 mg/kg) were examined; N=3 pre group. Hematological parameters of Balb/c uninfected, infected, and 15d-PGJ2 treated mice were examined. N=5 per group. All data were means±s.e.m. *P<0.05.
# FV-LSC were targeted by 15d-PGJ2 in the spleen of FV-infected mice. FV-infected mice were treated with 15d-PGJ2 or 9,10-dihydro-15d-PGJ2 at 0.05 mg/kg for 7 d. The splenic LSC (M34^+Sca1^+Kit^+) cells were analyzed by flow cytometry on day 14 post infection. […] Uninfected and infected vehicle controls were used for comparison. N=3; *P<0.05. […] The colonies were counted 10-14 days after plating. N=3 mice per group, *p<0.05.
# [3] = test system: BCR-ABL^+LSC (Kit^+Sca1^+Lin^−GFP^+); assay: Apoptosis of BCR-ABL+ LSCs treated ex vivo (annexin V, flow cytometry); assay type: cell-based, mouse
# Method: Apoptosis. Apoptosis of LSCs was performed using annexin V as described below in Supplementary Information and Methods.
# Apoptosis. The LSCs were diluted in DMEM, resuspended using a 16-gauge needle, and collected by centrifugation. 1×10^5 cells were resuspended in 200 μl of binding buffer (0.1 M HEPES with 1.4 M NaCl, 25 mM CaCl2, pH 7.4). Annexin V FITC (BD Biosciences) was incubated with cells for 15 min on ice followed by flow cytometric analysis.
# The ability of CyPGs derived from arachidonic acid (2 series PGs) to induce apoptosis was tested in cultures of LSCs from FV infected mice and in the murine CML model. […] 15d-PGJ2 is known as a PPAPγ agonist. […] In FIG. 7C Δ^12-PGJ3, 15d-PGJ2 or 9,10-dihydro-15d-PGJ2 are tested for their ability to induce apoptosis in a murine CML model. […] The cells were stained with annexin V-FITC and analyzed by flow cytometry. Representative of N=4. […] Inset: Effect of rosiglitazone on the apoptosis of LSC. Rosiglitazone (0.1-2.0 μM) was incubated with LSC in the culture media for 36 h as described earlier and the cells were subjected to annexin-V staining followed by flow cytometry. […] LSC were treated ex vivo with indicated concentrations of each compound for 36 h.
# (§1) Following 36 h of incubation, apoptotic cells were quantified by annexin V staining. […] In a related study to address if Δ^12-PGJ3 treatment would cause any degranulation of granulocytes, a rat basophilic cell line ([…]) was treated with 100 nM Δ^12-PGJ3 and the degranulation was followed by quantitating the release of histamine and a second marker of degranulation, hexoseaminidase.
# In this experiment, 500,000 BCR-ABL+ LSCs were plated in a 24-well plate followed and were treated with 25 nM PGD2Me or 100 nM ZK118182 (both are agonists of DP) for 24 h. GFP^+ cells were analyzed by flow cytometry. These agonists were purchased from Cayman Chemicals, MI.
# [4] = test system: p53; assay: p53 expression in FV-LSCs treated ex vivo (RT-PCR, nuclear extracts); assay type: cell-based, mouse
# [5] = test system: FV-LSCs transplanted into BALB/c-Stk^−/− mice
# Method: Transplant of FV-LSCs into BALB/c-Stk^−/− mice: FV-LSCs were generated as described above. 2.5×10^5 FV-LSCs were transplanted into BALB/c-Stk^−/− mice by retro-orbital injection. Six weeks after transplant the mice were treated with CyPGs or vehicle control as indicated in the text.
# Treatment of Mice with PGs: Mice with FV-induced erythroleukemia or MIGR-BCR-ABL induced CML were treated on the indicated days with CyPGs. Mice were treated with a daily intraperitoneal injection of Δ^12-PGJ3 (0.01-0.1 mg/kg), 15d-PGJ2 (0.1 mg/kg), or 9,10-dihydro-15d-PGJ2 (0.1 mg/kg) for 7 days. All three compounds were formulated with hydroxypropyl-β-cyclodextrin (30% w/v; Sigma; vehicle control).
# Stk^−/− mice are resistant to Friend virus infection so the leukemia developed by the transplanted mice is result of the transplanted LSCs and not FV infection. […] LSCs sorted from the spleens of FV-infected mice were transplanted into Stk^−/− mice (on a Balb/c background). After 6 weeks such mice were treated daily for 1 week with vehicle (hydroxypropyl-β-cyclodextrin), 15d-PGJ2 (0.05 mg/kg), or 9,10-dihydro-15d-PGJ2 (0.05 mg/kg) by intraperitoneal injection. The mice were sacrificed 51 days post LSC transplantation for analysis. An analysis of spleens of mice comparing splenomegaly in vehicle, 15d-PGJ2, or 9,10-dihydro-15d-PGJ2 treated transplanted mice was performed. Spleen weight compared to control (untransplanted mice) after treatment and WBC counts in the peripheral blood of the mice after treatment were examined, and a flow cytometric analysis of the spleen of untransplanted and LSC transplanted mice after treatment was performed. All data were mean±s.e.m. *p<0.05 compared to control or 9,10-dihydro-15d-PGJ2 treated groups. N=5 per group.
# [6] = test system: FV-LSCs (M34^+Kit^+Sca1^+); assay: Apoptosis of FV-LSCs treated ex vivo (annexin V, flow cytometry); assay type: cell-based, mouse; settings: 25 nM, 36 h, annexin V
# Method: On day 14 after infection, spleens were isolated and a single cell suspension of spleen cells was generated. The cells were filtered through a 70 μm sterile filter and flow-through cells were resuspended in RBC lysis buffer followed by centrifugation. Leukemia stem cells were isolated by FACS. Spleen cells were labeled with anti-Kit, Sca1 (BioLegend, San Diego, Calif.) and M34 antibodies. […] As indicated M34^+Kit^+Sca1^+ cells were cultured in Methocult media (Stem Cell Technologies Vancouver BC) M3334 supplemented with 200 ng/ml Sonic Hedgehog (Shh), 15 ng/ml bone morphogenetic protein-4 (BMP4) (both from R&D Systems Minneapolis, Minn.), and 50 ng/ml stem cell factor (SCF; Peprotech).
# The cells were stained with annexin V-FITC and analyzed by flow cytometry. […] Means±s.e.m. *P<0.001 compared to vehicle (PBS). […] Inset: Effect of rosiglitazone on the apoptosis of LSC. Rosiglitazone (0.1-2.0 μM) was incubated with LSC in the culture media for 36 h as described earlier and the cells were subjected to annexin-V staining followed by flow cytometry. […] LSC were treated ex vivo with indicated concentrations of each compound for 36 h. Mean±s.e.m. shown *P<0.001.
# [7] = test system: normal HSCs (MSCV-GFP^+HSC); assay: Effect on normal HSCs (MSCV-GFP+ HSC) treated ex vivo; settings: antagonists/inhibitor 10 nM; Δ^12-PGJ3 25 nM; 36 h
# [8] = test system: primary human AML cells; LSCs (CD34+CD38−CD123+); assay: Apoptosis of primary human AML cells and AML LSCs (annexin V); assay type: cell-based; settings: CAY10471 10 nM pretreatment, then Δ^12-PGJ3 100 nM
# Method: In this experiment, 110,000/well primary AML cells were cultured in above specified media for 6 and 12 hrs. Cells were collected and washed once with ice cold PBS. The cells were resuspended in 200 ul 1× Apoptosis buffer with annexin-V PE to all tubes. The cells were washed in PBS and resuspended in 600 ul PBS and transfer into flow tubes and analyzed for apoptosis (Annexin V+ cells) on FC-500. […] In this experiment, 110,000/well AML cells were cultured in earlier mentioned media for 6 and 12 hrs. Cells were collected and washed once in PBS and resuspended in 200 ul PBS and blocked with FC receptor antibody 10 mins RT. The following antibodies were added: CD38, CD123, CD34, CD117 (BD bioscience) for 1 hr on ice. Cells were washed in PBS once and resuspended in 200 ul of apoptotic buffer, and annexin V was added and incubated for 15 mins. Apoptotic cells (Annexin V+ cells) were counted by flow cytometry. […] Cells were collected and washed once in PBS and resuspended in 200 ul PBS and blocked with FC receptor antibody 10 mins RT. The following antibodies were added: CD38, CD123, CD34 (BD bioscience) for 1 hr on ice. Cells were washed in PBS once and resuspended in 200 ul of apoptotic buffer, and annexin V was added and incubated for 15 mins. Apoptotic cells (Annexin V+ cells) were counted by flow cytometry.
# Referring to the results shown in FIG. 16, these experiments were performed with primary AML stem cells isolated from a patient. […] In an identical experiment, the cells were also treated with a synthetic DP agonist, ZK118182 (100 nM). Apoptosis of cells (by annexin V staining) was measured using flow cytometry.
# [9] = test system: Human unfractionated bone marrow cells; assay: Colony formation of normal human bone marrow cells in methylcellulose; settings: methylcellulose with multiple growth factors, 12 days
# Method: Human unfractionated bone marrow cells (5×10^5 per well) were plated in methylcellulose complete media containing IL-3, GM-CSF, G-CSF, SCF and Epo supplemented with the indicated concentrations of drugs. Total colonies were counted after 12 days.
# [10] = test system: rat basophilic cell line (RBL-23); assay: Degranulation of basophilic cells (histamine and hexoseaminidase release); settings: Δ^12-PGJ3 100 nM
# Method: as §1
structure (smiles),measurement,setting,value
"CCCCC/C=C\C=C1\C(=O)CC[C@@H]1C/C=C\CCCC(=O)O [9,10-dihydro-15d-PGJ2]",p53 mRNA,[1]; 25 nM ex vivo,ineffective
same,LSCs (Sca1+Kit+M34+) in the spleen,"[2]; 0.05 mg/kg i.p. 7 d, flow cytometry day 14 post infection",ineffective
same,"splenomegaly, comparator CyPGs",[2]; i.p. 7 days,did not have any effect on the amelioration of splenomegaly
same,apoptosis of Sca1+GFP+Kit+ BCR-ABL+LSC from spleen,"[3]; 25-1000 nM, 36 h",had no effect; also recorded: ineffective even at high concentrations up to 1 μM
same,p53 expression at transcript level,"[4]; 10 or 25 nM, 12 h",ineffective
same,"hematocrit, WBC counts and reticulocyte counts","[5]; FV-induced leukemia, FIG. 3C",had no effect on any parameter tested
same,LSCs (M34+Sca1+Kit+) in the spleen,[5]; flow cytometry after 1 week i.p. treatment,did not have any effect on their viability
same,splenomegaly,"[5]; Δ^12-PGJ3 0.025 and 0.05 mg/kg, comparators 0.05 mg/kg, i.p. 1 week",nor alleviated splenomegaly
same,apoptosis of FV-LSCs,[6],fail to induce apoptosis; also recorded: no apoptosis
"CN(C1CCc2c(c3ccccc3n2CC(=O)O)C1)S(=O)(=O)c1ccc(F)cc1 (stereo not shown) [CAY10471, reference compound]",inhibition of Δ^12-PGJ3-induced apoptosis by DP antagonist,"[3]; antagonist 10 nM, 2 h pretreatment, then 25 nM Δ^12-PGJ3, 36 h",inhibited
same,viability of MSCV-HSC control cells,[7],not affected
same,block of Δ^12-PGJ3-induced apoptosis of LSCs,[8],completely blocked the apoptosis
"O=c1cc(-c2cccc3c2Sc2ccccc2S3)oc(N2CCOCC2)c1 [MTPO, 2-Morpholin-4-yl-6-thianthren-1-yl-pyran-4-one]",block of Δ^12-PGJ3-induced p53 expression by ATM inhibitor,[1]; pretreatment,blocked
same,block of Δ^12-PGJ3-induced apoptosis by ATM inhibitor,"[3]; pretreatment, then 25 nM Δ^12-PGJ3",blocked the effect of Δ^12-PGJ3 on apoptosis
same,block of Δ^12-PGJ3-dependent p53 expression by ATM inhibitors,"[4]; preincubation, then Δ^12-PGJ3",blocked the CyPG-dependent expression of p53
same,viability of MSCV-HSC control cells,[7],not affected
"CC(C)OC(=O)COCC=CCC1C(Cl)CC(O)C1C=CC(O)C1CCCCC1 (stereo not drawn) [ZK118182, [[4-[5R-chloro-2Z-[3R-cyclohexyl-3 S-hydroxy-1R-propenyl]-3 S-hydroxycyclopentyl]-2R-butenyl]oxy]-acetic acid, isopropyl ester]",apoptosis of BCR-ABL+ LSCs by synthetic DP agonists (GFP+ cells),"[3]; 25 nM PGD2Me or 100 nM ZK118182, 24 h",can induce apoptosis of LSCs
same,total colonies of human bone marrow cells,[9],had no effect
C[C@H](CCC(=O)O)C[C@H](C)C[C@H](C)C(=O)/C=C(\O)[C@H](C)C[C@H](C)C/C=C/[C@@H](C)[C@@H](O)[C@@H](C)[C@@H](O)C[C@@H]1CC[C@@](C)([C@H]2CC[C@@](C)([C@@H](C)O)O2)O1 [ionomycin],degranulation (release of histamine and hexoseaminidase),[10],caused extensive production of histamine and hexoseaminidase
